Measurements: ChEMBL document CHEMBL1146118, “Design, synthesis and biological evaluations of novel oxindoles as HIV-1 non-nucleoside reverse transcriptase inhibitors. Part I” (Bioorg Med Chem Lett, 2006)
Values belong to the compound of their own block, whether it stands above or below them.

Tests used:
HEK293 = experiment: Cytotoxicity against HEK293T cells; type: functional; conditions: Homo sapiens
[1] = tested on: Human immunodeficiency virus 1; experiment: Antiviral activity against HIV1 in HEK293T cells; type: functional, organism-based; conditions: Human immunodeficiency virus 1, HEK-293T

SMILES: CCOC(=O)[C@H]1C[C@]12C(=O)Nc1ccc(C)cc12
CC50 (HEK293): > 10 µM | EC50 [1]: 1.09 µM

SMILES: CCOC(=O)[C@H]1C[C@]12C(=O)Nc1ccc([N+](=O)[O-])cc12
CC50 (HEK293): > 10 µM | EC50 [1]: 1.03 µM

SMILES: O=C(O)[C@H]1C[C@]12C(=O)Nc1ccc(Br)cc12
CC50 (HEK293): > 10 µM | EC50 [1]: 7.63 µM

SMILES: CCOC(=O)[C@@H]1C[C@]12C(=O)Nc1ccc(Br)cc12
CC50 (HEK293): > 10 µM | EC50 [1]: > 10 µM

EC50 [1]: 0.463 µM
SMILES: CCCCCC#CC1CC12C(=O)Nc1ccc(Br)cc12 (stereo not given)
CC50 (HEK293): 6.62 µM

SMILES: CCOC(=O)[C@H]1C[C@]12C(=O)Nc1ccc(-c3cccs3)cc12
CC50 (HEK293): 1.94 µM | EC50 [1]: 2.65 µM

SMILES: CCOC(=O)[C@H]1C[C@]12C(=O)Nc1cc(Cl)ccc12
CC50 (HEK293): > 10 µM | EC50 [1]: > 10 µM

SMILES: CCOC(=O)[C@H]1C[C@]12C(=O)Nc1ccccc12
CC50 (HEK293): > 10 µM | EC50 [1]: 0.279 µM

EC50 [1]: 0.656 µM
SMILES: CON(C)C(=O)[C@H]1C[C@]12C(=O)Nc1ccc(Br)cc12
CC50 (HEK293): > 10 µM

SMILES: O=C(OCc1ccccc1)[C@H]1C[C@]12C(=O)Nc1ccc(Br)cc12
CC50 (HEK293): > 10 µM | EC50 [1]: 5.58 µM

EC50 [1]: 5.62 µM
SMILES: O=C1Nc2ccc(Br)cc2C12CC2COc1ccccc1 (stereo not given)
CC50 (HEK293): > 10 µM

SMILES: CCOC(=O)[C@H]1[C@@H](CC)[C@]12C(=O)Nc1ccc(Br)cc12
CC50 (HEK293): > 10 µM | EC50 [1]: 1.21 µM

SMILES: CCOC(=O)[C@H]1C[C@]12C(=O)Nc1ccc(-c3ccco3)cc12
CC50 (HEK293): 2.19 µM | EC50 [1]: 0.608 µM

EC50 [1]: > 10 µM
SMILES: CCCNC(=O)[C@H]1C[C@]12C(=O)Nc1ccc(Br)cc12
CC50 (HEK293): > 10 µM

SMILES: CCOC(=O)[C@H]1C[C@]12C(=O)Nc1ccc(Br)cc12
CC50 (HEK293): > 10 µM | EC50 [1]: 0.066 µM

EC50 [1]: 0.191 µM
SMILES: O=C([C@H]1C[C@]12C(=O)Nc1ccc(Br)cc12)N1CCCC1
CC50 (HEK293): > 10 µM

SMILES: CCOC(=O)[C@H]1[C@H](CC)[C@]12C(=O)Nc1ccc(Br)cc12
CC50 (HEK293): > 10 µM | EC50 [1]: 0.03 µM

SMILES: CCOC(=O)[C@H]1C(C)(C)[C@]12C(=O)Nc1ccc(Br)cc12
CC50 (HEK293): > 10 µM | EC50 [1]: 0.015 µM

SMILES: CC(C)OC(=O)[C@H]1C[C@]12C(=O)Nc1ccc(Br)cc12
CC50 (HEK293): > 10 µM | EC50 [1]: 0.059 µM

EC50 [1]: 1.42 µM
SMILES: CCN(CC)C(=O)[C@H]1C[C@]12C(=O)Nc1ccc(Br)cc12
CC50 (HEK293): > 10 µM

EC50 [1]: 0.18 µM
SMILES: O=C([C@H]1C[C@]12C(=O)Nc1ccc(Br)cc12)N1CCSC1
CC50 (HEK293): > 10 µM

EC50 [1]: 0.197 µM
SMILES: CCCCC1CC12C(=O)Nc1ccc(Br)cc12 (stereo not given)
CC50 (HEK293): > 10 µM

EC50 [1]: 2.28 µM
SMILES: CCOC(=O)/C=C1/C(=O)Nc2ccc(Br)cc21
CC50 (HEK293): > 10 µM

SMILES: Cc1ccnc2c1NC(=O)c1cccnc1N2C1CC1 [NEVIRAPINE]
CC50 (HEK293): > 10 µM | EC50 [1]: 0.05 µM

SMILES: CCOC(=O)[C@H]1C[C@]12C(=O)Nc1ccc(OC(F)(F)F)cc12
CC50 (HEK293): > 10 µM | EC50 [1]: 2.23 µM

EC50 [1]: > 10 µM
SMILES: CCOC(=O)/C=C1\C(=O)Nc2ccc(Br)cc21
CC50 (HEK293): > 10 µM

SMILES: CCOC(=O)[C@H]1C[C@]12C(=O)Nc1ccc(C#N)cc12
CC50 (HEK293): > 10 µM | EC50 [1]: 0.066 µM

SMILES: CCOC(=O)[C@@]1(C)C[C@]12C(=O)Nc1ccc(Br)cc12
CC50 (HEK293): > 10 µM | EC50 [1]: 33.3 µM

SMILES: CCOC(=O)[C@H]1C[C@]12C(=O)Nc1cccc(Br)c12
CC50 (HEK293): > 10 µM | EC50 [1]: > 10 µM

SMILES: CCOC(=O)[C@H]1C[C@]12C(=O)Nc1c(Cl)cc(Cl)cc12
CC50 (HEK293): > 10 µM | EC50 [1]: 7.36 µM

SMILES: CCOC(=O)[C@H]1C[C@]12C(=O)Nc1ccc(F)cc12
CC50 (HEK293): > 10 µM | EC50 [1]: 0.289 µM

SMILES: CC(C)(C)OC(=O)[C@H]1C[C@]12C(=O)Nc1ccc(Br)cc12
CC50 (HEK293): > 10 µM | EC50 [1]: 0.04 µM

SMILES: CCOC(=O)[C@H]1C[C@]12C(=O)Nc1ccc(N)cc12
CC50 (HEK293): 1.99 µM | EC50 [1]: 2.7 µM

EC50 [1]: 0.586 µM
SMILES: O=C([C@H]1C[C@]12C(=O)Nc1ccc(Br)cc12)N1CCCCC1
CC50 (HEK293): > 10 µM

SMILES: CCOC(=O)[C@H]1C[C@]12C(=O)Nc1c(C)cc(Cl)cc12
CC50 (HEK293): > 10 µM | EC50 [1]: 2.25 µM

SMILES: CCOC(=O)[C@H]1C[C@]12C(=O)Nc1ccc(-c3cccn3C)cc12
CC50 (HEK293): 8.06 µM | EC50 [1]: 0.358 µM

EC50 [1]: > 10 µM
SMILES: COC(=O)CC1CC12C(=O)Nc1ccc(Br)cc12 (stereo not given)
CC50 (HEK293): > 10 µM

SMILES: O=C1Nc2ccc(Cl)cc2[C@@](C#CC2CC2)(C(F)(F)F)O1 [EFAVIRENZ]
CC50 (HEK293): 10 µM

SMILES: CCOC(=O)[C@H]1C[C@]12C(=O)Nc1ccc(-c3ccccc3)cc12
CC50 (HEK293): > 10 µM | EC50 [1]: 0.126 µM

SMILES: CCOC(=O)[C@H]1C[C@]12C(=O)N(C)c1ccc(Br)cc12
CC50 (HEK293): > 10 µM | EC50 [1]: > 10 µM

SMILES: CCOC(=O)[C@H]1C2(CCCC2)[C@]12C(=O)Nc1ccc(Br)cc12
CC50 (HEK293): > 10 µM | EC50 [1]: 1.46 µM

SMILES: CCOC(=O)[C@H]1C[C@]12C(S)=Nc1ccc(Br)cc12
CC50 (HEK293): > 10 µM | EC50 [1]: > 10 µM

SMILES: CCCCC(=O)[C@H]1C[C@]12C(=O)Nc1ccc(Br)cc12
CC50 (HEK293): > 10 µM | EC50 [1]: 0.62 µM

SMILES: CCOC(=O)[C@H]1C[C@]12C(=O)Nc1ccc(I)cc12
CC50 (HEK293): > 10 µM | EC50 [1]: 0.486 µM

SMILES: C=Cc1ccc2c(c1)[C@@]1(C[C@@H]1C(=O)OCC)C(=O)N2
CC50 (HEK293): > 10 µM | EC50 [1]: > 10 µM

SMILES: CCOC(=O)[C@H]1C[C@]12C(=O)Nc1ccc(Cl)cc12
CC50 (HEK293): > 10 µM | EC50 [1]: 0.059 µM

EC50 [1]: > 10 µM
SMILES: CCOC(=O)CC1(C)C(=O)Nc2ccc(Br)cc21 (stereo not given)
CC50 (HEK293): > 10 µM

SMILES: CCOC(=O)[C@H]1C(CC)(CC)[C@]12C(=O)Nc1ccc(Br)cc12
CC50 (HEK293): > 10 µM | EC50 [1]: > 10 µM
